Assay results published in patent publication US20090209527A1, “Methods for Using Rapamycin Analogues in the Treatment of Neurological Disorders” (Wyeth, priority 2008, published 2009).

Legend:
cortical neuron cultures = assay: Cortical neuron assay (neurite outgrowth in dissociated cortical neuron cultures); format: cell-based, rat
Method: Dissociated cortical neuron cultures were prepared as previously described (Liu et al., Screening of Immunophilin Ligands by Quantitative Analysis of Neurofilament Expression and Neurite Outgrowth in Cultured Neurons and Cells, J. Neurosci. Methods, 2007 Jul. 30; 163(2):310-20).
Briefly, embryonic day 15 rat fetuses were collected and dissected in ice-cold PBS. Dissected cortices were pooled together and transferred to an enzymatic dissociation medium containing papain. After 30 minutes, the tissue was mechanically triturated with a fire-polished glass Pasteur pipette. Single-cell suspensions in complete media were seeded on poly-L-ornithine and laminin coated 96-well plates. After 24 hours, cultures were treated with various concentrations of compound for 72 hours. The cultures were then fixed and stained with an anti-tubulin primary antibody (TUJ-1) and a fluorescent-tagged secondary antibody. Neurite outgrowth was determined by using the Enhanced Neurite Outgrowth (ENO) algorithm with the Cellomics ArrayScan and expressed as average neurite length or total neurite length per cell.

[1] = test system: Spinal cord neuron cultures; assay: Spinal cord neuron assay; format: cell-based; settings: Rattus norvegicus, 72 hours treatment, read-out: EC50 in spinal cord neuron assays
Method: Spinal cord neuron cultures were prepared from embryonic day 15 (E15) rat embryos (Liu et al., Screening of Immunophilin Ligands by Quantitative Analysis of Neurofilament Expression and Neurite Outgrowth in Cultured Neurons and Cells, J. Neurosci. Methods, 2007 Jul. 30; 163(2):310-20). The embryos were collected and their spinal cords were removed in ice-cold phosphate-buffered saline (PBS) without Ca^2+ and Mg^2+. Dissected pieces of spinal cord tissue were pooled together and transferred to an enzymatic dissociation media containing 20 IU/mL papain in Earle's balanced salt solution (Worthington Biochemical, Freehold, N.J.) and incubated for 30 minutes at 37° C. After enzymatic dissociation, the papain solution was aspirated and the tissue mechanically triturated with a fire-polished Pasteur pipette in complete media [Neurobasal Medium with B-27 supplement (Gibco, Grand Island, N.Y.), 100 IU/mL penicillin, 100 µg/mL streptomycin, […] aphidicolin, 0.5 mM glutamate] containing 2,000 IU/mL DNase and 10 mg/mL ovomucoid protease inhibitor. Single-cell suspensions in complete media were plated on pre-coated poly-L-ornithine/laminin 96-well plates (Becton-Dickinson, Bedford, Mass.) at a density of 1.0×10^4 cells/well. Spinal cord neurons were maintained for 24 hours then exposed to vehicle or various concentrations of compound for 72 hours.

## CO[C@H]1C[C@@H]2CC[C@@H](C)[C@@](O)(O2)C(=O)C(=O)N2CCCC[C@H]2C(=O)O[C@H]([C@H](C)C[C@@H]2CC[C@@H](O)[C@H](OC)C2)CC(=O)[C@H](C)/C=C(\C)[C@@H](O)[C@@H](OC)C(=O)[C@H](C)C[C@H](C)[C@@H]2CC[C@H](/C=C/1C)ON2c1ccccc1 [Example 2, 9,27-dihydroxy-3-{2-[4-hydroxy-3-methoxycyclohexyl]-1-methylethyl}-10,21-dimethoxy-6,8,12,14,20,26-hexamethyl-37-phenyl-4,9,10,12,13,14,15,16,17,18,21,22,23,24,25,26,27,32,33,34,34a-henicosahydro-3H-23,27-epoxy-18,15-(epoxyimino)pyrido[2,1-c][1,4]oxazacyclohentriacontine-1,5,11,28,29(6H,31H)-pentone]
Cortical neuron cultures; Rattus norvegicus, Cortical neurone, 72 hours treatment, neurite outgrowth, read-out: EC50 in cortical neuron assays
  EC50: < 1 µM
Cortical neuron cultures; summary statement
  neuronal survival and neurite outgrowth in cultured cortical neurons: promotes neuronal survival and neurite outgrowth
[1]
  EC50: < 1 µM
